{"source": "patent US20110160166A1", "about": "“Therapeutic composition for the treatment and prevention of athlete's foot and fungal infections of the nail and surrounding tissues” (priority 2009, published 2011)", "key": {"nail fungus": {"tested_on": "nail fungus", "conditions": "after 48 weeks of daily topical treatment; cited from earlier work"}, "[1]": {"excerpt": "Salicylic acid USP is well known as a strongly antimicrobial pharmaceutical ingredient. It is currently approved by US FDA as an Over-the-Counter active ingredient in anti-dandruff and anti-acne medicaments. Salicylic acid is a skin and eye irritant and a keratolytic, and must be used at low concentrations when applied to human tissue."}, "[2]": {"biological_target": "Cytochrome P450 2D6 isozyme (Homo sapiens, UniProt P10635)", "sequence (P10635 whole entry)": "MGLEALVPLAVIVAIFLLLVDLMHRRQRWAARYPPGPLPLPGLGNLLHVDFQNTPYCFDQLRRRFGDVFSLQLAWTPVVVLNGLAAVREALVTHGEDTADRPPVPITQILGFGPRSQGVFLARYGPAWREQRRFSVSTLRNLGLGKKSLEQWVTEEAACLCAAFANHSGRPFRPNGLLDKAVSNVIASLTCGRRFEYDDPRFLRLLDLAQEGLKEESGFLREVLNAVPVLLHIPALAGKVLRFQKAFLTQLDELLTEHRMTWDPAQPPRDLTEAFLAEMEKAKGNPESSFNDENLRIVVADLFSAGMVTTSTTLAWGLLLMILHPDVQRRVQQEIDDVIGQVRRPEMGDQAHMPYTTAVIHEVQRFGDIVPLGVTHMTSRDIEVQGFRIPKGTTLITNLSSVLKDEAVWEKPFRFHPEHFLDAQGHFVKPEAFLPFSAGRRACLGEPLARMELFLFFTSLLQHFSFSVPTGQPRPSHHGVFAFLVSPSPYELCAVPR", "conditions": "cited from earlier work"}, "toenail infections": {"tested_on": "toenail infections", "conditions": "cited from earlier work"}, "fingernail infections": {"tested_on": "fingernail infections", "conditions": "terbinafine; 6 weeks of treatment, assessment at 18 weeks after completion of therapy; cited from earlier work"}}, "data": [{"smiles": "Cc1cc(C2CCCCC2)n(O)c(=O)c1", "note": "[Ciclopirox 8%, Ciclopirox]", "values": [{"measurement": "patients who achieved clear or almost clear nails", "setting": "nail fungus", "value": "< 12", "unit": "%"}]}, {"smiles": "O=C(O)c1ccccc1O", "note": "[Salicylic acid]", "values": [{"measurement": "keratolytic and irritant effects", "setting": "[1]; formulated into an anhydrous base, applied to human nail and surrounding tissues", "value": "dramatically reduced or eliminated"}, {"measurement": "irritation experienced by the subject", "setting": "[1]; high concentrations in anhydrous base", "value": "no irritation"}]}, {"smiles": "CN(C/C=C/C#CC(C)(C)C)Cc1cccc2ccccc12", "note": "[terbinafine]", "values": [{"measurement": "inhibition of Cytochrome P450 2D6 isozyme", "setting": "[2]", "value": "inhibitor"}, {"measurement": "cure rates for toenail infections", "setting": "toenail infections; terbinafine 250 mg oral, 12 weeks treatment, 36 weeks follow-up after completion of therapy", "value": "38%-59%"}, {"measurement": "clinical relapse rate", "setting": "toenail infections; terbinafine, toenail infections", "value": "~15", "unit": "%"}, {"measurement": "cure rates for fingernail infections", "setting": "fingernail infections", "value": "59-79%"}]}]}
